Consider one compound from patent US20100189683A1, “Pulsatile Dosing of Gossypol for Treatment of Disease” (Ascenta Therapeutics, Inc., priority 2008, published 2010).

For this assay, the system named is patients with advanced cancer. Briefly: Clinical efficacy (stable disease for 60 days or more) of (−)-gossypol by dosing schedule. Type of assay: in vivo, human. The protocol:
Following (−)-gossypol administration to patients with advanced cancer, clinical efficacy (e.g., patients having stable disease for 60 days or more) was monitored according to the following dosing schedules: “Daily” dosing: 5 to 60 mg/day of (−)-gossypol on 21 days per 28 day cycle; “BID×3d” dosing: 30 to 80 mg BID of (−)-gossypol on 3 consecutive days (e.g., Monday-Tuesday-Wednesday) repeated every other week per 28 day cycle; and “Weekly” dosing: 80 to 200 mg of (−)-gossypol once weekly per 28 day cycle. […] Tumor types represented in this study included: non-small cell lung cancer, non-Hodgkin lymphoma, chronic lymphocytic leukemia/small lymphocytic lymphoma, colon cancer, breast cancer, small cell lung cancer, head and neck cancer, sarcoma, hepatocellular cancer, pancreatic cancer, esophageal cancer, cholangiocarcinoma, carcinoid/neuroendocrine cancer, Hodgkin's lymphoma, endometrial cancer, adrenal cancer, melanoma, gastrointestinal stromal tumor, renal cancer, bladder cancer, and ovarian cancer.

Marks after values point to notes of the source that are not given here.

Regarding `Cc1cc2c(C(C)C)c(O)c(O)c(C=O)c2c(O)c1-c1c(C)cc2c(C(C)C)c(O)c(O)c(C=O)c2c1O` [(−)-gossypol], the “Median # (%) of patients with stable disease ≧60 days” value reads like this: (BID × 3 d, N = 21) 6 (24) # (%); (Daily, N = 38) 6 (16) # (%); (Weekly, N = 12) 2 (13) # (%). Also, the “Median duration of days of stable disease (range)” value (from here on “Median duration of days … (range)”) (BID × 3 d, N = 21) is recorded as 180 (72-443) days; the “Median duration of days … (range)” value (Daily, N = 38) was 82 (56-341) days; the “Median duration of days … (range)” value (Weekly, N = 12) is on record as 69 (58-80) days. Also, the “Median duration of days of stable disease” value (pulsatile dosing (BID×3d) as compared to continuous daily dosing) was “longer median duration of days of stable disease”.
